Data as given in patent US11629143B2, “HipK4 inhibitors and uses thereof” (Vibliome Therapeutics, LLC, priority 2020, dated 2023).

How the values were obtained:
Assay in all cases: Kinase panel (mobility shift)
Assay type in all cases: biochemical
HIPK3 = HIPK3 (Homo sapiens, UniProt Q9H422)
Outline: (§1)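 Compound at 5 um + kinase + fluor-labeled substrate, standardized mix; rxn stopped; electrophoretic separation of product/substrate on chip; activity = product vs substrate peak fluorescence. Bins A ≥95%, B 90-94%, C 80-89%.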

EPH-B4 = biological target: T1, EPH-B4 (Homo sapiens, UniProt P54760)
T1 sequence (P54760 16-987): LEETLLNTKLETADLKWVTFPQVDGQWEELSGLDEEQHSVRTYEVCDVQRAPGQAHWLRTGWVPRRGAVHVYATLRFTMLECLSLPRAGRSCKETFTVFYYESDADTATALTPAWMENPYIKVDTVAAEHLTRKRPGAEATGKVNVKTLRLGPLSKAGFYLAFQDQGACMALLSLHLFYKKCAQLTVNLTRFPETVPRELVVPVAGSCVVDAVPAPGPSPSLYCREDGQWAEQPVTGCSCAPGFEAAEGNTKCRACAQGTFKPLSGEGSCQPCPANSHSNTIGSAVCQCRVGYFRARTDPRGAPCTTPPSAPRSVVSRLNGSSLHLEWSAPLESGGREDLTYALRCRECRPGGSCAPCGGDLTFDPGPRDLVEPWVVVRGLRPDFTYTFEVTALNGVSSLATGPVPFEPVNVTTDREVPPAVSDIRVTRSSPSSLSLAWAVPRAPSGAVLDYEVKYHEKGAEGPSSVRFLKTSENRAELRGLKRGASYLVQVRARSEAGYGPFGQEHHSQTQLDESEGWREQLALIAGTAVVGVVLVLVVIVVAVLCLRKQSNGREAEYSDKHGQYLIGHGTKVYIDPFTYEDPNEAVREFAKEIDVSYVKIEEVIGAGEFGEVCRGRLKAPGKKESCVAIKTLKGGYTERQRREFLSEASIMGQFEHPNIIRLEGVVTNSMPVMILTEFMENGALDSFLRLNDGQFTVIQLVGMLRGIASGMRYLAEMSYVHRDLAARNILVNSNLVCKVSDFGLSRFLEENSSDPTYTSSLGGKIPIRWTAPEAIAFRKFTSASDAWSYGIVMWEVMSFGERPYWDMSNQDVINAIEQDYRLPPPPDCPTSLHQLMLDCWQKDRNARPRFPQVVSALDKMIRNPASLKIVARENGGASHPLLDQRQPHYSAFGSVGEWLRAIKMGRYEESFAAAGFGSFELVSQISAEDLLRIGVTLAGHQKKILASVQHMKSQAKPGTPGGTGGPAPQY
Outline: as §1

LOK = LOK (Homo sapiens, UniProt O94804); conditions: at 5 um
Outline: as §1

EPH-A8 = biological target: T2, EPH-A8 (Homo sapiens, UniProt P29322)
T2 sequence (P29322 28-1005): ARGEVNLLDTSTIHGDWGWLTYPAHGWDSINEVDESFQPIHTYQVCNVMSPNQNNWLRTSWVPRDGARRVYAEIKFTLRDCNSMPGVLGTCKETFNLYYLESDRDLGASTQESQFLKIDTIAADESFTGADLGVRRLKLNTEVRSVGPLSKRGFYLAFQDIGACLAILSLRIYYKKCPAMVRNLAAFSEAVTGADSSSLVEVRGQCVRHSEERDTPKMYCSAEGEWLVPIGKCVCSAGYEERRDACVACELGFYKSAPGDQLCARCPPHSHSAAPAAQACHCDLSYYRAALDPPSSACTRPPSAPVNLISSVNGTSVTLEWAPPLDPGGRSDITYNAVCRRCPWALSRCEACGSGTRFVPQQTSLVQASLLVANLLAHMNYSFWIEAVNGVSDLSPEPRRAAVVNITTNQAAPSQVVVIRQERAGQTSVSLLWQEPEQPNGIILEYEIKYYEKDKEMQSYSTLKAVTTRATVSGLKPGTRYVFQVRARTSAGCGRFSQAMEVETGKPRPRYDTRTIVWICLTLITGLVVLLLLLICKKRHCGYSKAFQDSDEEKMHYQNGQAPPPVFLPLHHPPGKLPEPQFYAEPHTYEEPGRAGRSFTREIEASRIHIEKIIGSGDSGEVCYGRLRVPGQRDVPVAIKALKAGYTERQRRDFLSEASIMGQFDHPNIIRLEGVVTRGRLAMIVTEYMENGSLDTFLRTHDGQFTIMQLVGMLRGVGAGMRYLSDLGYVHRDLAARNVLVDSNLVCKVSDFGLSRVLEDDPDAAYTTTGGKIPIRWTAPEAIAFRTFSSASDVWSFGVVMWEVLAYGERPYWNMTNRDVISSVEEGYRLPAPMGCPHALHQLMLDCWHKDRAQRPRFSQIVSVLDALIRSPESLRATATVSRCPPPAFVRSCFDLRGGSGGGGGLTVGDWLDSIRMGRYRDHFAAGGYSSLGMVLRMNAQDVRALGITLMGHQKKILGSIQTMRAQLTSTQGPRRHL
Outline: as §1

BRK = BRK (Homo sapiens, UniProt Q13882)
Outline: as §1

EPH-A4 = EPH-A4 (Homo sapiens, UniProt P54764)
Outline: as §1

Chain of HIPK3 (Q9H422 whole entry, species assumed): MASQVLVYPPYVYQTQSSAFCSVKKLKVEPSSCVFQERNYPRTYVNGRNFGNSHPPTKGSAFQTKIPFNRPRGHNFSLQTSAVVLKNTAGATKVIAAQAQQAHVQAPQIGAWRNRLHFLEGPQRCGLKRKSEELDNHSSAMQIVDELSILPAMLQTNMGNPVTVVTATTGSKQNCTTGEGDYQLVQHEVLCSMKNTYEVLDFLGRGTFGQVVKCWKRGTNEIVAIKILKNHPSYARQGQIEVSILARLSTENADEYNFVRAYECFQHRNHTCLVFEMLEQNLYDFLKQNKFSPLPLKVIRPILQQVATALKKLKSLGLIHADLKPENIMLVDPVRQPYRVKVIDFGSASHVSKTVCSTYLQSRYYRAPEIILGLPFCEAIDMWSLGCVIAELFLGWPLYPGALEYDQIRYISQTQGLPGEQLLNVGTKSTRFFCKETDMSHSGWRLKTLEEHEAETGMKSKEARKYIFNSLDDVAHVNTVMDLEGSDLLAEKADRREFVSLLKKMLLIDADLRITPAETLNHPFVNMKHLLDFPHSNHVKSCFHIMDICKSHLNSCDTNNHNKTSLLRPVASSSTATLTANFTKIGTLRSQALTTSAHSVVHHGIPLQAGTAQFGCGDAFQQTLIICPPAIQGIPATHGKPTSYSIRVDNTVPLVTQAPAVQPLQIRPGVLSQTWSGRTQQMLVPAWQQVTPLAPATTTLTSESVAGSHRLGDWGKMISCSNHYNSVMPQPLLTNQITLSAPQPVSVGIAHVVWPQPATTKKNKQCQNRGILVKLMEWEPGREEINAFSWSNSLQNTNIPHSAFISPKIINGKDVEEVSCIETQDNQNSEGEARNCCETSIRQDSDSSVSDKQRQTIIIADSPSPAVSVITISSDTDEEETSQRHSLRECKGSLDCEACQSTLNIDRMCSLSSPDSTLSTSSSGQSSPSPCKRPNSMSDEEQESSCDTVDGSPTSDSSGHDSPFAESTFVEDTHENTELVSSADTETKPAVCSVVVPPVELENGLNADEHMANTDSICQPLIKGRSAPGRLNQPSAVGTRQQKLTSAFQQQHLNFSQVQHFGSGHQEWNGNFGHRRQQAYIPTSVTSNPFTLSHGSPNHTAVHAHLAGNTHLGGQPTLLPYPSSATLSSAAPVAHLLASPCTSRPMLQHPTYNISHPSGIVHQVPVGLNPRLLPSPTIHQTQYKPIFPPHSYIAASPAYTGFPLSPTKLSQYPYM
Chain of LOK (O94804 whole entry, species assumed): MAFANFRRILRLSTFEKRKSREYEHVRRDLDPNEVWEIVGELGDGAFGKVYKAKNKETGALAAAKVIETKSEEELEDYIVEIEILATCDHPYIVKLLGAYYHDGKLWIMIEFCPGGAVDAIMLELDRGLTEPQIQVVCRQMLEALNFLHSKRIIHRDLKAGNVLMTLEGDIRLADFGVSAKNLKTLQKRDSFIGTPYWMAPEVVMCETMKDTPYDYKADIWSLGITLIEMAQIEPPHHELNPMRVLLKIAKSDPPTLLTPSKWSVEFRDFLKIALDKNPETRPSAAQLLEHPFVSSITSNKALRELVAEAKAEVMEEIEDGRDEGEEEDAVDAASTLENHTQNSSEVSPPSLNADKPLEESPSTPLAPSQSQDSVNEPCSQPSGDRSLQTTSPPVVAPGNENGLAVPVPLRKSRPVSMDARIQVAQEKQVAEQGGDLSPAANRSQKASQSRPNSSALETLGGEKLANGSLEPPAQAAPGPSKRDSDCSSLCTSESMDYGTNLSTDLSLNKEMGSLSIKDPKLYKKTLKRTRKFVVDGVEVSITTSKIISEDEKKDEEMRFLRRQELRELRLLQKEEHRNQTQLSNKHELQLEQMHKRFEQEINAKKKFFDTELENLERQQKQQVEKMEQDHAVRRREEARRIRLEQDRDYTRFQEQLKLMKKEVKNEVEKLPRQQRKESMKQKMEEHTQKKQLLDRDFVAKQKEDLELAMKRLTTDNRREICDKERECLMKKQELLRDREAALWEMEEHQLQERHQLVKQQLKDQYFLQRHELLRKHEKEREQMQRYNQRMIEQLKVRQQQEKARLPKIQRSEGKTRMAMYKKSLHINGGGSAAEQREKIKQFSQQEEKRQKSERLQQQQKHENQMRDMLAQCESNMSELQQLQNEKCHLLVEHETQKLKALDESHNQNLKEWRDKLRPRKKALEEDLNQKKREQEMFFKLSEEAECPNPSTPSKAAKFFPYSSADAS
Chain of EPH-A4 (P54764 20-986, species assumed): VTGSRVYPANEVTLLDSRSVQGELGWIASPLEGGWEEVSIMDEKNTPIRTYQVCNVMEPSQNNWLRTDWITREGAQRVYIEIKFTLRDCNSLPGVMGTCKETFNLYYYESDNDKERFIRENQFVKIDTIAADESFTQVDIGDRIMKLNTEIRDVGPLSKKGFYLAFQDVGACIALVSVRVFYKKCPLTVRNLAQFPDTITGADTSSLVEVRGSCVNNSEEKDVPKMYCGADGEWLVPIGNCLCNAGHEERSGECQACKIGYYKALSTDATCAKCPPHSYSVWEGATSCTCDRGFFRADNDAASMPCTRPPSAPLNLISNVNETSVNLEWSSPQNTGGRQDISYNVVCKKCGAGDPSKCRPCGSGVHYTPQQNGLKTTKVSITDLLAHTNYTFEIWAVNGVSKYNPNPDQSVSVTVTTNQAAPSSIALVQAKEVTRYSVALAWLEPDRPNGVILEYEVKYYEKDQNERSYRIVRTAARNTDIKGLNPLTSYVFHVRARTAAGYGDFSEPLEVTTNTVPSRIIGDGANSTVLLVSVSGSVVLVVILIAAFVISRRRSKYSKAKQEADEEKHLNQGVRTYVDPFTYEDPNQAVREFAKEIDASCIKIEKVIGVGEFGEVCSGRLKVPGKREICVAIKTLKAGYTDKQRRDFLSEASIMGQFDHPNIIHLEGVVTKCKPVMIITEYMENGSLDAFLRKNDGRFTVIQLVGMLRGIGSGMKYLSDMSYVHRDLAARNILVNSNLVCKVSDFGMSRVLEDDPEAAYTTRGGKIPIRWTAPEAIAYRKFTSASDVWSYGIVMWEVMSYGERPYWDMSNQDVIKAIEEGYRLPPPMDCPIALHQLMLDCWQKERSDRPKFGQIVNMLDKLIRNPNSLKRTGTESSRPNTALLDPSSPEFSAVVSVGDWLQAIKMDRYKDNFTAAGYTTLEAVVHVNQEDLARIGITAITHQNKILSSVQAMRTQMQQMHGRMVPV
Chain of BRK (Q13882 whole entry, species assumed): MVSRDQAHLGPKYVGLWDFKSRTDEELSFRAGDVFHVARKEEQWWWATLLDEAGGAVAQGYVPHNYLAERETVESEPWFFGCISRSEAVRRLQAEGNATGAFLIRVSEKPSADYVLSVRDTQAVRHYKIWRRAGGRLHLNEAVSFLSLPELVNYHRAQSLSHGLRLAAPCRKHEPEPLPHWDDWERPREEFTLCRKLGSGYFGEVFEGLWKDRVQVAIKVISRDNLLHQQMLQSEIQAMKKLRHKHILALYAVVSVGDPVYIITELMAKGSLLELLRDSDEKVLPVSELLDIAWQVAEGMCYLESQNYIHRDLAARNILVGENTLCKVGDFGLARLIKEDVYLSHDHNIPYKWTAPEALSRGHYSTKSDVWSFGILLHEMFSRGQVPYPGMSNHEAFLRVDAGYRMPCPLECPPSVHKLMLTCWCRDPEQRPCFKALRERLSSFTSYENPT

Row | inhibition at 5 µM (HIPK3) [%] | inhibition at 5 µM (EPH-B4) [%] | inhibition of kinase activity, LOK (LOK) | inhibition at 5 µM (EPH-A8) [%] | inhibition at 5 µM (BRK) [%] | inhibition at 5 µM (EPH-A4) [%] | SMILES
1 | < 50 | < 50 | E (category E is less than 50%) | < 50 | 50 to 79 | < 50 | CSc1nc(C(=O)Nc2ccc(Oc3ccnc(N)c3Cl)c(F)c2)c(-c2ccc(F)cc2)o1 [Compound 1]
2 | < 50 | < 50 | D (category D for 50-79) | 50 to 79 | < 50 | 50 to 79 | CSc1nc(C(=O)Nc2ccc(Oc3cc4cnn(C)c4cc3Br)c(F)c2)c(-c2ccc(F)cc2)o1 [Compound 2]
3 | < 50 | < 50 | E (category E is less than 50%) | 50 to 79 | 90 to 94 | < 50 | CNC(=O)c1cc(Oc2ccc(NC(=O)c3nc(SC)oc3-c3ccc(F)cc3Cl)cc2)ccn1 [Compound 3]
4 | 50 to 79 | < 50 | D (category D for 50-79) | 50 to 79 | 50 to 79 | < 50 | CNC(=O)c1cc(Oc2ccc(NC(=O)c3nc(SC)oc3-c3ccc(F)c(F)c3)cc2)ccn1 [Compound 4]
5 | < 50 | < 50 | E (category E is less than 50%) | 50 to 79 | 50 to 79 | < 50 | CNC(=O)c1cc(Oc2ccc(NC(=O)c3nc(SC)oc3-c3ccc(Cl)s3)cc2)ccn1 [Compound 5]
6 | < 50 | < 50 | E (category E is less than 50%) | 80 to 89 | ≥ 95 | < 50 | CNC(=O)c1cc(Oc2ccc(NC(=O)c3nc(SC)oc3-c3ccc(F)cc3F)cc2)ccn1 [Compound 6]
7 | < 50 | < 50 | C (C=80%-89% at 5 um) | < 50 | < 50 | < 50 | CNC(=O)c1cc(Oc2ccc(NC(=O)c3nc(SC)oc3-c3ccc(OC)cc3)cc2)ccn1 [Compound 7]
8 | < 50 | 80 to 89 | B (B=90%-94% at 5 um) | 80 to 89 | ≥ 95 | 90 to 94 | CSc1nc(C(=O)Nc2ccc(Oc3ccnc(-c4cnn(C)c4)c3)c(F)c2)c(-c2ccc(F)cc2)o1 [Compound 11]
9 | 50 to 79 | 50 to 79 | D (category D for 50-79) | 50 to 79 | ≥ 95 | 50 to 79 | CNC(=O)c1cc(Oc2ccc(NC(=O)c3nc(SC)oc3-c3ccc(F)cc3F)cc2F)ccn1 [Compound 12]
10 | 80 to 89 | 50 to 79 | E (category E is less than 50%) | 80 to 89 | 50 to 79 | 50 to 79 | CNC(=O)c1cc(Oc2ccc(NC(=O)c3nc(S(C)(=O)=O)sc3-c3ccc(F)cc3)cc2F)ccn1 [Compound 13]
11 | 50 to 79 | 50 to 79 | C (C=80%-89% at 5 um) | 50 to 79 | 80 to 89 | 50 to 79 | CNC(=O)c1cc(Oc2ccc(NC(=O)c3nc(NC)oc3-c3ccc(F)cc3)cc2F)ccn1 [Compound 14]
12 | 50 to 79 | 50 to 79 | C (C=80%-89% at 5 um) | 80 to 89 | 50 to 79 | 50 to 79 | CNC(=O)c1cc(Oc2ccc(NC(=O)c3nc(OC)oc3-c3ccc(F)cc3)cc2F)ccn1 [Compound 15]
13 | < 50 | < 50 | D (category D for 50-79) | < 50 | < 50 | < 50 | CNC(=O)c1cc(Oc2ccc(NC(=O)c3nc(SC)oc3-c3ccc(F)s3)cc2F)ccn1 [Compound 16]
14 | < 50 | < 50 | D (category D for 50-79) | < 50 | < 50 | < 50 | CNC(=O)c1cc(Oc2ccc(NC(=O)c3nc(NC)oc3-c3ccc(F)s3)cc2F)ccn1 [Compound 17]
15 | < 50 | 50 to 79 | D (category D for 50-79) | 50 to 79 | 50 to 79 | 50 to 79 | CNC(=O)c1cc(Oc2c(F)cc(NC(=O)c3nc(NC)sc3-c3ccc(F)cc3)cc2F)ccn1 [Compound 19]
16 | 50 to 79 | < 50 | E (category E is less than 50%) | 50 to 79 | < 50 | < 50 | CNC(=O)c1cc(Oc2ccc(NC(=O)c3nc(NC)sc3-c3ccc(F)cc3F)cc2F)ccn1 [Compound 21]
17 | < 50 | 50 to 79 | D (category D for 50-79) | 50 to 79 | 50 to 79 | 50 to 79 | CNC(=O)c1cc(Oc2ccc(NC(=O)c3nc(NC)sc3-c3ccc(F)cc3C)cc2F)ccn1 [Compound 23]
18 | 50 to 79 | < 50 | C (C=80%-89% at 5 um) | 50 to 79 | < 50 | < 50 | CNC(=O)c1cc(Oc2ccc(NC(=O)c3nc(OC)oc3-c3ccc(F)c(F)c3)cc2F)ccn1 [Compound 24]
19 | < 50 | < 50 | D (category D for 50-79) | < 50 | < 50 | < 50 | CNC(=O)c1cc(Oc2ccc(NC(=O)c3nc(OC)oc3-c3ccc(F)s3)cc2F)ccn1 [Compound 25]
20 | 50 to 79 | 80 to 89 | C (C=80%-89% at 5 um) | 80 to 89 | 90 to 94 | 80 to 89 | CNC(=O)c1cc(Oc2ccc(NC(=O)c3nc(C4CC4)oc3-c3ccc(F)cc3)cc2F)ccn1 [Compound 26]
